These results are taken from patent US8008354B2, “Death receptor sensitizing compounds and methods of use therefor” (Burnham Institute for Medical Research, priority 2006, dated 2011).

Assay [1] relates to FLIP. The settings on record: previously shown (Kim et al., 2002); cited from earlier work.
For assay [2], the system named is PPC-1 cells. Kind of assay: MTT viability of PPC-1 cells with extrinsic (CH-11, TRAIL) or intrinsic (VP-16, staurosporine) pathway stimuli. The note with it: CH-11, TRAIL versus VP-16, STS, MTT 24 hours. Type of assay: cell-based, human. Here is the method:
FIG. 4. Small molecules selectively sensitize to extrinsic pathway stimuli. PPC-1 cells (1×10^4) were seeded overnight in 96 well plates. The next day, cells were treated with increasing concentrations of 6094911, 5809354, 5703229, or 5569100 in combination with increasing concentrations of CH-11 or TRAIL to activate the extrinsic pathway or with VP-16 or staurosporine to activate the intrinsic pathway. Cell viability was measured 24 hours later by MTT assay. Cell viability is expressed as a mean percentage of untreated cells+SD(n=3).
Statistics. Cytotoxicity induced by compounds used in combination with conventional agents (e.g., CH-11, TRAIL, VP-16 and staurosporine) was evaluated for evidence of synergy toxicity by comparing the slopes of the dose-response curves. […]
The 9 compounds identified using anti-FAS antibody screening theoretically could non-specifically sensitize tumor cells to apoptotic stimuli or they could be selective for the extrinsic pathway. […] Accordingly, PPC-1 cells were treated with various concentrations of compounds with or without CH-11, TRAIL, VP-16, or STS, and 24 hours later, cell viability was measured by MTT assays.

Assay [3] concerns FLIP. Kind of assay: FLIP protein levels by SDS-PAGE/immunoblotting. Type of assay: cell-based, human. The settings on record: Example 2; PPC-1 cells, increasing concentrations, 16 hours. Here is the method:
FIG. 7. Effect of FAS-sensitizing compounds on levels of FLIP protein and DISC activation. (A) PPC-1 cells (2×10^5) were seeded into 35 mm plates and treated the next day with various FAS-sensitizing compounds (30 μM), with (+) or without (−) CH-11 antibody (100 ng/mL). As a positive control, cells were treated with CDDO (5 μM). Cell lysates were prepared 24 hours later, normalized for total protein content, and analyzed by SDS-PAGE/immunoblotting using antibodies specific for FLIP or a-tubulin. (B) PPC-1, OVCAR-3, T47D, MDA-MB-468 and DU 145 cells (2×10^5) were seeded into 35 mm plates and treated the next day with 5809354 (40 μM). Cell lysates were prepared 24 hours after treatment, normalized for total protein and analyzed by SDS-PAGE/immunoblotting using antibodies specific for FLIP or β-actin. (C) PPC-1, OVCAR-3, T47D, and DU 145 cells (2×10^5) were seeded into 35 mm plates and treated the next day with 5809354 (40 μM) (black bars) or buffer control (white bars). mRNA was extracted 24 hours after treatment. Levels of the long isoform of FLIP and GAPDH were detected by quantitative RT-PCR. Levels of FLIP were normalized for GAPDH expression and expressed as a mean fold change+SD over buffer treated cells. (D) PPC-1 cells (2×10^5) were seeded into 35 mm plates and treated the next day with various FAS-sensitizing compounds (30 μM) with (+) or without (−) CH-11 (100 ng/mL). Cell lysates were prepared 24 hours after treatment, normalized for total protein, and analyzed by SDS-PAGE/immunoblotting using antibodies specific for caspase-8 and β-actin.
(§1) FIG. 13. Small molecule down-regulation of FLIP sensitizes prostate cancer cells to anoikis. (A) PPC-1 cells were seeded overnight in adherent conditions and then treated with increasing concentrations of 5809354 for 16 hours. After incubation, cells were harvested. Total cellular RNA was extracted and mRNA levels of the long isoform of FLIP (FLIPL), the short isoform of FLIP (FLIPS), or rRNA levels of 18S were detected by real-time RT-PCR. Data were normalized using the ΔΔCT method and expressed as the mean±SEM percent of […] expression relative to untreated controls. (B) PPC-1 cells were cultured and treated as in panel A. Total cellular protein was isolated and analyzed by SDS-PAGE immunoblotting using anti-FLIP and anti-Actin antibodies. (C) PPC-1 cells were seeded overnight in adherent conditions and then exposed to increasing concentrations of 5809354 in the presence or absence of Fas-activating antibody (CH-11, 100 ng/mL). Thirty hours after incubation, cell viability was determined using the MTS assay. Data represents the mean±SEM of percent of viable cells. (D) PPC-1 cells were seeded overnight in adherent or suspension conditions and then treated with increasing concentrations of 5809354 for 30 hours. After incubation, apoptosis was measured by flow cytometry to detect cell surface annexin V expression and PI. Data represents the mean±SEM of percent of viable cells. (E) Cells were harvested, fixed, stained with DAPI, and nuclear morphology analyzed by fluorescence microscopy. Arrowheads refer to fragmented nuclei indicative of apoptosis. […] Thirty hours after incubation, cells were harvested and equal volumes plated in a colony formation assay. One week later, cells were stained with methylene blue and the number of colonies counted. Data represents the mean ±SEM percent of colonies relative to untreated controls.
Immunoblot analysis. Protein extracts were obtained by washing cells with phosphate-buffered saline (PBS) [pH 7.4] and suspending the cells in lysis buffer [10 mM Tris (pH 7.4), 150 mM NaCl, 0.1% Triton X-100, 0.5% sodium deoxycholate, and 5 mM EDTA] containing protease inhibitors (Complete tablets; Roche, Indianapolis, Ind.). Immunoblot assays were performed as described in Carter et al. (2005). […]
(In general: Immunoblotting shows a protein as a band on a membrane.)

For assay [4], the system named is PPC-1 cells. The assay is described as follows: MTS viability of adherent PPC-1 cells with or without CH-11, thirty hours. It counts as cell-based, human. The settings on record: CH-11 100 ng/mL. Here is the method: FIG. 13. Small molecule down-regulation of FLIP sensitizes prostate cancer cells to anoikis. (A) PPC-1 cells were seeded overnight in adherent conditions and then treated with increasing concentrations of 5809354 for 16 hours. After incubation, cells were harvested. Total cellular RNA was extracted and mRNA levels of the long isoform of FLIP (FLIPL), the short isoform of FLIP (FLIPS), or rRNA levels of 18S were detected by real-time RT-PCR. Data were normalized using the ΔΔCT method and expressed as the mean±SEM percent of […] expression relative to untreated controls. (B) PPC-1 cells were cultured and treated as in panel A. Total cellular protein was isolated and analyzed by SDS-PAGE immunoblotting using anti-FLIP and anti-Actin antibodies. […] Thirty hours after incubation, cell viability was determined using the MTS assay. […] After incubation, apoptosis was measured by flow cytometry to detect cell surface annexin V expression and PI. […] (E) Cells were harvested, fixed, stained with DAPI, and nuclear morphology analyzed by fluorescence microscopy. […] One week later, cells were stained with methylene blue and the number of colonies counted. […]
Cell viability apoptosis, colony formation, and caspase activation assays. Cell viability was assessed using the MTS reduction assay (Promega, Madison, Wis., USA) according to the manufacturer's protocols and as described in Schimmer et al. (2006). […]

The subject of assay [5] is PPC-1 cells. The assay is described as follows: Anoikis of PPC-1 cells in suspension versus adherent conditions (annexin V/PI, DAPI, colony formation). It counts as cell-based, human. Here is the method: FIG. 12. Depletion of endogenous FLIP levels by siRNA sensitizes malignant cells to anoikis. (A) PPC-1 cells were seeded in adherent conditions overnight and then transfected with 25 nM anti-FLIP siRNA (siFLIP) or control luciferase siRNA (siCtrl). Thirty hours after transfection, cells were harvested, total protein isolated and analyzed by SDS-PAGE immunoblotting using anti-FLIP and anti-actin antibodies. (B) PPC-1 cells were transfected with increasing concentrations of siFLIP or siCtrl. After transfection, cells were treated with CH-11 Fas activating antibody (100 ng/ml). Thirty hours after incubation, cells were harvested and apoptosis measured by flow cytometry to detect cell surface annexin V expression and PI uptake. Data represents the mean±SEM percent of viable cells. (C) PPC-1 cells were transfected with increasing concentrations of siFLIP or siCtrl. After transfection, cells were subcultured under suspension conditions for 30 hours and then harvested. Apoptosis was measured by flow cytometry to detect cell surface annexin V expression and PI uptake. Data represents the mean±SEM of percent of viable cells. (D) Equal volumes of PPC-1 cells from panel C were replated under adherent conditions to permit clonogenic growth. One week after replating, cells were stained with methylene blue and the number of colonies counted. Data represents the mean±SEM percent of colonies compared to untreated controls.
as §1
FIG. 15. 5809354 sensitizes cells to anoikis through a caspase 8 dependent mechanism. (A) PPC-1 cells (5×10^4) were cultured under suspension conditions overnight and then treated with 5809354 in the presence or absence of the pan-caspase inhibitor z-VAD-fink (100 μM). Thirty hours after incubation, anoikis was determined by flow cytometry to detect cell surface annexin V expression and PI uptake. Data represents the mean±SEM percent of viable cells or colonies compared to untreated controls. (B) PPC-1 cells (5×10^4) were cultured in suspension conditions overnight and then treated with 5809354 (60 μM). […]

On to `CC1(C)CC[C@]2(C(=O)O)CC[C@]3(C)[C@H](C(=O)C=C4[C@@]5(C)C=C(C#N)C(=O)C(C)(C)[C@@H]5CC[C@]43C)[C@@H]2C1` [CDDO, 2-cyano-3,12-dioxooleana-1,9-dien-28-oic acid], for which the FLIP protein levels result in the assay with FLIP [1] is given as “reduce FLIP protein levels”.

Regarding `C[n+]1ccn2c3c(c4cc(C5CCCCC5)ccc42)CCCc31.[I-]` [compound 5362611, 8-Cyclohexyl-3-methyl-5,6-dihydro-4H-pyrazino[3,2,1-jk]carbazol-3-ium; iodide], the “sensitization to extrinsic versus intrinsic pathway stimuli” value with PPC-1 cells [2] is “sensitized to both the death receptor (extrinsic) and mitochondrial pathway (intrinsic) stimuli”.

With `CCOCCCNC(=O)CCCOc1ccc(Cl)cc1C` [compound 7271570, (4-(4-chloro-2-methylphenoxy))-N-(3-ethoxypropyl)-butanamide], the FLIP protein expression entry in the assay with FLIP [3] is listed as “failed to decrease FLIP levels”. Also, in the assay with PPC-1 cells [4], the “viability in the presence of Fas-activating antibody (CH-11)” value is “failed to sensitize”. The sensitization to anoikis entry with PPC-1 cells [5] (suspension conditions, 30 hours) was “failed to sensitize”. The “colony formation after suspension culture” value with PPC-1 cells [5] (thirty hours in suspension, colonies counted one week later) is “inactive”.
